# Reference: US4174402A, “Method for the prophylaxis of SRS-A-induced symptoms” (priority 1978, dated 1979)
# Where “and” joins values, the source holds several entries; their conditions need not be identical. Identical values can stand only once. Entries after “also recorded” stand apart in the source; their conditions may differ. Like-named read-outs stand apart in the source and are kept apart here.
# How the values were obtained:
# SRS-A [1] = experiment: Test Procedure 3: SRS-A-induced increase in resistance to pulmonary inflation in anesthetized cats; format: in vivo, cat
# Procedure: The trachea of each cat was cannulated, and the cats were artificially respired at 15 strokes/minute with a stroke volume of 22 ml/kg. A side-arm of the intratracheal cannula was connected to a Statham transducer, and the intratracheal pressure was recorded continuously on a polygraph. One femoral vein was cannulated in all cats receiving intravenous administration of drugs. In addition, most of the cats were cannulated through the femoral artery; this cannula was attached to another Statham transducer, and the blood pressure of these cats recorded. All cats received 1.0 mg/kg of propranolol and 0.2 mg/kg of thenyldiamine intravenously 3 minutes before iv injection of SRS-A. SRS-A was obtained from rat peritoneal cavities as described previously in Test Procedure 1. Each pool of rat ip fluid containing SRS-A was dose-ranged and a dose selected that was estimated to cause an average increase in intrapulmonary resistance to inflation in control cats by 4-6 mmHg. Test dose volumes ranged from 1.0 to 2.0 ml/kg, iv. […] Both test compounds and the sodium hydroxide vehicle were injected iv 5 minutes before the injections of SRS-A (2 minutes before the injection of propranolol and thenyldiamine).
# SRS-A [2] = experiment: Test Procedure 4: competitive antagonism to SRS-A in anesthetized guinea pigs; format: in vivo, guinea pig
# Source text: The intratracheal pressure (ITP) of anesthetized, artificially respired guinea pigs (Konzett-Rossler preparation) was monitored and peak increases in ITP recorded. The basic methodology was the same as that described hereinabove for Test Procedure 2 except that the basic experimental unit was not two guinea pigs (medicated and control) but three guinea pigs examined in an uninterrupted sequence: a control guinea pig receiving the standard dose of SRS-A, a medicated guinea pig receiving the standard dose of SRS-A and a medicated guinea pig receiving a multiple dose of SRS-A. In this manner, the ratios of peak responses of the same sample of SRS-A could be determined for medicated/control guinea pigs (standard procedure), and for medicated guinea pigs receiving the standard dose of SRS-A. The multiple dose of SRS-A in these studies was either 3× or 6× the standard dose.
# histamine = experiment: Test Procedure 5: histamine-induced bronchoconstriction in anesthetized guinea pigs; format: in vivo, guinea pig
# Procedure: Guinea pigs weighing 350 to 400 g were anesthetized ip with 1.5 g/kg urethane and prepared for measurements of resistance to pulmonary inflation using a slightly modified Konzett-Rossler method (see Test Procedure 2). […] The experimental procedure was started after each guinea pig had attained its maximal, repeatable response to histamine. […] Artificial respiration was resumed 25 minutes later. Thirty minutes after the administration of one of the drugs, tne guinea pigs received two of three injections of histamine at 3-minute intervals. The average of these histamine responses (increases in resistance) was expressed as percent of the maximal histamine response obtained with the same guinea pig before the administration of the drug. In addition to sc administration, compound b was also studied following po administration. In these studies, the time interval between po medication and the secondary histamine challenges was increased to 45 minutes.
# serotonin = experiment: Test Procedure 6: serotonin-induced bronchoconstriction in anesthetized guinea pigs; format: in vivo, guinea pig
# Procedure: Guinea pigs, weighing 275-340 g, were anesthetized and prepared for measurements of resistance to pulmonary inflation using a slightly modified Konzett-Rossler method (see Test Procedure 2). All guinea pigs received 0.1 mg/kg of propranolol iv and 5 minutes later, 50 mcg/kg of serotonin (creatinine complex) iv. Compound b or cyproheptadine were administered iv just before the injection of propranolol at 50 or 5 mg/kg, respectively. Compound b was prepared as a 5% solution in 5% N-methylglucamine and cyproheptadine as a 0.25% aqueous solution.
# acetylcholine = experiment: Test Procedure 7: acetylcholine-induced bronchoconstriction in anesthetized guinea pigs; format: in vivo, guinea pig; settings: 100 mg/kg p.o.
# Procedure: Guinea pigs, weighing 250-350 g were anesthetized with 1.5 g/kg i.p. of urethane and prepared for measurements of resistance to pulmonary inflation using a slightly modified Konzett-Rossler preparation (see Test Procedure 2). Histamine phosphate (5 μg/kg as base) was injected four times at 5 minute intervals in order to ascertain that the maximum bronchoconstrictor responsiveness has been obtained. Acetylcholine was injected intravenously at […] 5 minutes following the last injection of histamine and the increase in intratracheal pressure was recorded. Compound b or aminophylline (100 mg/kg p.o.) or the control vehicle were administered to five guinea pigs each, 1 hour before the injection of acetylcholine (1/2 hour before the anesthesia).
# [3] = Oral toxicity, 5 weeks, rhesus monkeys; format: in vivo, rhesus monkey
# Procedure: The oral toxicity of compound b at doses of 5.0, 32.0, 75.0 and 200 mg/kg/day for 5 weeks was studied in rhesus monkeys.
# [4] = Oral toxicity, 5 weeks, Charles River CD albino rats; format: in vivo, rat
# SRS-A [5] = experiment: Test Procedure 3: SRS-A-induced increase in resistance to pulmonary inflation in anesthetized cats; format: in vivo, cat; remark: listed apart in the source
# [6] = rhesus monkey, in vivo, po, 200 mg/kg/day
# [7] = rat, in vivo, po, 640 mg/kg/day
# Procedure for bradykinin: Antagonism of bradykinin-induced bronchoconstriction in guinea pigs was determined by measuring increases in resistance to artificial pulmonary inflation (Konzett-Rossler preparation). […] Due to large variations in bronchoconstricting responses among individual guinea pigs, each guinea pig serves as its own control and was challenged with bradykinin twice. The second response to bradykinin was expressed as percent of the first response to bradykinin. […] All guinea pigs having a first bradykinin response of less than 12 mm Hg were rejected as poor responders. […] In order to augment the bronchoconstrictor response, each guinea pig received 100 mcg propranolol/kg, iv, 5 minutes before the first injection of bradykinin (30 mcg/kg, iv). […] Five minutes after the injection of a test compound the guinea pigs received the second injection of bradykinin and the peak of the response determined. The effects of both test compounds were expressed as % inhibition of bradykinin-induced increase in bronchial resistance to forced inflation, as compared to the levels of bronchial resistance following iv administration of their respective solvent controls.
smiles,measurement,setting,value
"COc1ccc2c(c1)c1c(n2C(=O)c2ccccc2)CCC(C(=O)O)C1 (centres unmarked) [Compound b, 9-benzoyl-6-methoxy-1,2,3,4-tetrahydrocarbazole-3-carboxylic acid]",ED50,"SRS-A [1]; Felis catus, 5 min, intravenous",0.028 ± 0.024 mg/kg
same,"Max. Increase in Resistance to Pulm. Inflation, mm Hg ± S.E.",SRS-A [1]; intravenous 0.01 mg/kg,4.1 ± 1.3 mm Hg
same,% Inhibition,SRS-A [1]; intravenous 0.1 mg/kg,73%
same,"Max. Increase in Resistance to Pulm. Inflation, mm Hg ± S.E.",SRS-A [1]; intravenous 1.0 mg/kg,0.1 ± 0.1 mm Hg
same,inhibition of SRS-A-induced increase in resistance to inflation,SRS-A [1]; intravenous 1.0 mg/kg,complete inhibition
same,"Ratio of peak responses, medicated (high dose SRS-A)/controls","SRS-A [2]; 2.0 mg/kg iv, SRS-A lot B, 6x dose 12 ml/kg",2.14 ± .68 and 2.14
same,"Ratio of peak responses, medicated (low dose SRS-A)/controls","SRS-A [2]; 2.0 mg/kg iv, SRS-A lot B, standard dose 2 ml/kg",0.14 ± 0.7 and 0.14
same,% Inhibition,"SRS-A [2]; 2.0 mg/kg iv, six-fold SRS-A dose",0%
same,% Inhibition,"SRS-A [2]; 2.0 mg/kg iv, standard dose of SRS-A",86%
same,"Ratio of peak responses, medicated (high dose SRS-A)/controls","SRS-A [2]; 3.3 mg/kg iv, SRS-A lot A, 3x dose 12 ml/kg",0.76 ± .20 and 0.76
same,"Ratio of peak responses, medicated (low dose SRS-A)/controls","SRS-A [2]; 3.3 mg/kg iv, SRS-A lot A, standard dose 4 ml/kg",0.12 ± 0.3 and 0.12
same,% Inhibition,"SRS-A [2]; 3.3 mg/kg iv, standard dose of SRS-A",88%
same,% Inhibition,"SRS-A [2]; 3.3 mg/kg iv, three-fold SRS-A dose",24%
same,mode of antagonism to SRS-A,SRS-A [2]; iv,competitive antagonist to SRS-A
same,effect against histamine-induced bronchoconstriction (activity profile),histamine; guinea pigs,ineffectiveness
same,inhibition of histamine-induced bronchoconstriction,histamine; oral 100 mg/kg,no significant inhibition
same,% Inhibition,histamine; po 100 mg/kg,16%
same,Histamine-Response in % of Premed. Histamine Response,histamine; po 100 mg/kg,84 ± 26%
same,% Inhibition,histamine; sc 100 mg/kg,8%
same,Histamine-Response in % of Premed. Histamine Response,histamine; sc 100 mg/kg,92 ± 2%
same,inhibition of histamine-induced bronchoconstriction,histamine; sc 100 mg/kg,no significant inhibition
same,effect against serotonin-induced bronchoconstriction,serotonin; guinea pigs,no inhibitory effect; also recorded: ineffectiveness
same,Increase in Resistance (mm Hg),"serotonin; iv 50 mg/kg, P insign.",45 ± 8 mm Hg
same,Inhibition %,"serotonin; iv 50 mg/kg, P insign.",4%
same,% Inhibition,acetylcholine,9%
same,"Peak Increase in Intracheal Pressure, mm Hg",acetylcholine,21 ± 4 mm Hg
same,effect against acetylcholine-induced bronchoconstriction,acetylcholine,inactive; also recorded: ineffectiveness
same,mortality,"[3]; oral 5.0, 32.0 and 75.0 mg/kg/day, 5 weeks",no mortality occurred
same,gross or microscopic histopathologic changes,"[3]; rhesus monkey, in vivo",No gross or microscopic histophathologic changes were found
same,deaths attributed to medication,[3]; [6],two deaths attributed to medication occurred
same,tolerability,[3]; [6],not well tolerated
same,mortality,[4]; oral 1280 mg/kg/day,all rats died within 18 days
same,growth rate,[4]; [7],slightly depressed
same,hematocrit,[4]; [7],minimally lower than controls
same,hemoglobin concentration,[4]; [7],minimally lower than controls
same,number of red blood cells,[4]; [7],minimally lower than controls
same,tolerability,"[4]; rat, in vivo, po, 1280 mg/kg/day",not well tolerated
same,effect against bradykinin-induced bronchoconstriction (activity profile),bradykinin; guinea pigs,effectiveness
same,inhibition of bradykinin-induced increases in bronchial resistance,bradykinin; iv,inhibited bradykinin-induced increases in bronchial resistance to inflation in a dose-related manner
same,% Inhibition,bradykinin; iv 0.33 mg/kg,12%
same,Average Increase In Bronchial Resistance (2nd Response in % of 1st Response ± S.E.),bradykinin; iv 0.33 mg/kg,76 ± 13%
same,% Inhibition,bradykinin; iv 1.0 mg/kg,48%
same,Average Increase In Bronchial Resistance (2nd Response in % of 1st Response ± S.E.),bradykinin; iv 1.0 mg/kg,45 ± 7%
same,% Inhibition,bradykinin; iv 3.3 mg/kg,81%
same,Average Increase In Bronchial Resistance (2nd Response in % of 1st Response ± S.E.),bradykinin; iv 3.3 mg/kg,16 ± 3%
same,% Inhibition,bradykinin; iv 10.0 mg/kg,84%
same,Average Increase In Bronchial Resistance (2nd Response in % of 1st Response ± S.E.),bradykinin; iv 10.0 mg/kg,14 ± 5%
same,% Inhibition,bradykinin; iv 33.0 mg/kg,93%
same,Average Increase In Bronchial Resistance (2nd Response in % of 1st Response ± S.E.),bradykinin; iv 33.0 mg/kg,6 ± 4%
same,inhibition of bradykinin-induced bronchoconstriction,"bradykinin; iv 3.3, 10 and 33 mg/kg",nearly complete inhibition
same,% Inhibition,SRS-A [5]; intravenous 0.01 mg/kg,30%
same,"Max. Increase in Resistance to Pulm. Inflation, mm Hg ± S.E.",SRS-A [5]; intravenous 0.1 mg/kg,1.6 ± 0.5 mm Hg
same,% Inhibition,SRS-A [5]; intravenous 1.0 mg/kg,98%
same,increase in resistance in one of seven cats,SRS-A [5]; intravenous 1.0 mg/kg,0.5 mm Hg
same,% Inhibition,SRS-A [5]; oral 0.33 mg/kg,25%
same,"Max. Increase in Resistance to Pulm. Inflation, mm Hg ± S.E.",SRS-A [5]; oral 0.33 mg/kg,3.1 ± 0.3 mm Hg
same,% Inhibition,SRS-A [5]; oral 1.0 mg/kg,49%
same,"Max. Increase in Resistance to Pulm. Inflation, mm Hg ± S.E.",SRS-A [5]; oral 1.0 mg/kg,2.0 ± 0.8 mm Hg
same,% Inhibition,SRS-A [5]; oral 3.3 mg/kg,85%
same,"Max. Increase in Resistance to Pulm. Inflation, mm Hg ± S.E.",SRS-A [5]; oral 3.3 mg/kg,0.6 ± 0.5 mm Hg
same,% Inhibition,SRS-A [5]; oral 10.0 mg/kg,98%
same,"Max. Increase in Resistance to Pulm. Inflation, mm Hg ± S.E.",SRS-A [5]; oral 10.0 mg/kg,0.1 ± 0.1 mm Hg
